Source: patent US4529731A, “Thiadiazolediamine derivative with histamine H-2 receptor inhibiting properties” (American Home Products Corporation, priority 1983, dated 1985)
“Also recorded” adds a separate entry of the source.

What was measured:
[1] = test system: spontaneous gastric acid secretion in cannulated rats; assay: inhibiting spontaneous gastric acid secretion in cannulated rats; assay type: in vivo, Male albino Sprague Dawley rats; conditions: for time after which a significant response ceases: cimetidine 80 mg/kg, ranitidine 60 mg/kg
Description: Male albino Sprague Dawley rats (200-300 g), purchased from Canadian Breeding Laboratories, were employed. Two gastric cannulas were implanted surgically in each rat as described by L. E. Borella and F. Herr, Gastroenterology, 61, 345 (1971). The rats were used two to three weeks after the operation at a time when their food intake and weight gain were similar to the food intake and weight gain of unoperated litter mates. […] Prior to each experiment, the plugs of the stomach cannulas of each rat were removed and the debris present in the stomach was flushed out with tepid saline passed through the cannulas. Thereafter, the lumen of the stomach was continuously perfused with saline introduced into the stomach through the forestomach cannula at a rate of 0.8-1.2 ml/min. […] On the basis of the hourly acid output, the rats were divided into equal groups so that the average acid output of all groups was similar. Saline (vehicle) or saline suspensions or solutions of the test compounds were administered intragastrically (i.g.) through the forestomach cannula, after having closed the antral cannula. During the one hour absorption period, the stomachs of the rats were not perfused. […] The average post-treatment hourly acid outputs of the test compound groups were compared to that of the saline group and the percent inhibition of acid output was calculated. Multiple statistical comparisons between groups was done using Dunnet's test, C. W. Dunnet, Journal of American Statistical Association, 50, 1096 (1955).

[2] = test system: cold-restraint-induced gastric lesions; assay: development of cold-restraint-induced gastric lesions (ulcers); assay type: in vivo, male albino rats (Sprague-Dawley); conditions: p.o.; for ULCER SCORE (MEAN ± S.E.): number of ulcers in glandular stomach
Procedure: Senay and R. J. Levine, Proc. Soc. Exp. Biol. Med., 124, 1221 (1967).
More explicitly exemplified, the beneficial effects were evaluated as follow: Food was withheld from male albino rats (165-175 g, Sprague-Dawley, Canadian Breeding Laboratories) for 24 hours but water was freely available. The object compound was administered orally in one milliliter of a liquid vehicle to the animals 30 minutes before placing the animals into restrainers. Just prior to being restrained, each animal was given orally 50 mg of sodium taurocholate. The vehicle empoloyed was saline containing polysorbate 80 (oleate ester of sorbitol and its anhydrides copolymerized with ethylene oxide), one drop per five milliliters of saline. The restrainers were made of plexiglass and restricted the movement of the rat to a minimum. The restrainers were placed in a cold environment (4°-5° C.) for three hours. The animals were sacrificed by cervical dislocation, the stomachs removed and the number of ulcers in the glandular portion of the stomach determined.

histamine H-2 receptors = assay: inhibition of histamine H-2 receptors (statement in words)
[3] = toxicity (statement in words)
[4] = 1 hr after dosing, peroral, object compound 80, cimetidine 80, ranitidine 60 mg/kg
[5] = 2 hr after dosing, peroral, object compound 80, cimetidine 80, ranitidine 60 mg/kg
[6] = 3 hr after dosing, peroral, object compound 80, cimetidine 80, ranitidine 60 mg/kg
[7] = 4 hr after dosing, peroral, object compound 80, cimetidine 80, ranitidine 60 mg/kg, cimetidine value = last statistically significant (*)
[8] = 5 hr after dosing, peroral, object compound 80, cimetidine 80, ranitidine 60 mg/kg, ranitidine value = last statistically significant (*)
[9] = 6 hr after dosing, peroral, object compound 80, ranitidine 60 mg/kg
[10] = 7 hr after dosing, peroral, object compound 80, ranitidine 60 mg/kg

| Compound | % INHIBITION OF ACID OUTPUT AT VARIOUS TIMES (HR) AFTER DOSING [1, 4] | % INHIBITION OF ACID OUTPUT AT VARIOUS TIMES (HR) AFTER DOSING [1, 5] | % INHIBITION OF ACID OUTPUT AT VARIOUS TIMES (HR) AFTER DOSING [1, 6] | % INHIBITION OF ACID OUTPUT AT VARIOUS TIMES (HR) AFTER DOSING [1, 7] | % INHIBITION OF ACID OUTPUT AT VARIOUS TIMES (HR) AFTER DOSING [1, 8] | % INHIBITION OF ACID OUTPUT AT VARIOUS TIMES (HR) AFTER DOSING [1, 9] | % INHIBITION OF ACID OUTPUT AT VARIOUS TIMES (HR) AFTER DOSING [1, 10] | time after which a significant response ceases ([1]; peroral) | other results |
| --- | --- | --- | --- | --- | --- | --- | --- | --- | --- |
| CN(C)CCNc1n[s+]([O-])nc1NCCCOc1cccc(CN2CCCCC2)c1 (stereo not shown) [Object compound, N-[2-(dimethylamino)ethyl]-N'-[3-[3-[(1-piperidinyl)methyl]phenoxy]propyl]-1,2,5-thiadiazole-3,4-diamine, 1-oxide] | 88% | 95% | 96% | 95% | 94% | 85% | 61% |  | % INHIBITION OF ACID OUTPUT AT VARIOUS TIMES (HR) AFTER DOSING ([1]; 8 hr after dosing, peroral, object compound 80 mg/kg): 52%; % INHIBITION OF ACID OUTPUT AT VARIOUS TIMES (HR) AFTER DOSING ([1]; 9 hr after dosing, peroral, object compound 80 mg/kg): 63%; % INHIBITION OF ACID OUTPUT AT VARIOUS TIMES (HR) AFTER DOSING ([1]; 10 hr after dosing, peroral, object compound 80 mg/kg): 64%; % INHIBITION OF ACID OUTPUT AT VARIOUS TIMES (HR) AFTER DOSING ([1]; 18 hr after dosing, peroral, object compound 80 mg/kg): 32%; % INHIBITION OF ACID OUTPUT AT VARIOUS TIMES (HR) AFTER DOSING ([1]; 19 hr after dosing, peroral, object compound 80 mg/kg, last statistically significant value (*)): 29%; % INHIBITION OF ACID OUTPUT AT VARIOUS TIMES (HR) AFTER DOSING ([1]; 20 hr after dosing, peroral, object compound 80 mg/kg): 7%; % INHIBITION OF 3 HOURS GASTRIC ACID OUTPUT ([1]; peroral dose 20 mg/kg, rat): 36%; % INHIBITION OF 3 HOURS GASTRIC ACID OUTPUT ([1]; peroral dose 40 mg/kg, rat): 65%; % INHIBITION OF 3 HOURS GASTRIC ACID OUTPUT ([1]; peroral dose 80 mg/kg, rat): 74%; duration of effect compared with cimetidine and ranitidine ([1]; peroral, object compound 80, cimetidine 80, ranitidine 60 mg/kg): longer acting effect; duration of action ([1]; rat, in vivo): long acting properties; % INHIBITION (ulcer score) ([2]; 1 mg/kg): 44%; ULCER SCORE (MEAN ± S.E.) ([2]; 1 mg/kg): 10 ± 9; % INHIBITION (ulcer score) ([2]; 5 mg/kg, * p < 0.05): 89%; ULCER SCORE (MEAN ± S.E.) ([2]; 5 mg/kg): 2 ± 1; % INHIBITION (ulcer score) ([2]; 20 mg/kg, ** p < 0.01): 95%; ULCER SCORE (MEAN ± S.E.) ([2]; 20 mg/kg): 0.9 ± 0.5; inhibition of histamine H-2 receptors (histamine H-2 receptors): effective inhibitor of histamine H-2 receptors; also recorded: specifically inhibits H-2 histamine receptors; order of toxicity [3]: relatively low order of toxicity |
| CN/C(=N/CCSCc1nc[nH]c1C)NC#N [cimetidine, reference compound] | 84% | 84% | 63% | 52% | 3% |  |  | 5 h |  |
| CNC(=C[N+](=O)[O-])NCCSCc1ccc(CN(C)C)o1 [ranitidine, reference compound] | 69% | 81% | 65% | 63% | 44% | 39% | 6% | 6 h |  |
